# Data from patent US9489013B2, “C6-azaspiro iminothiadiazine dioxides as bace inhibitors, compositions, and their use” (Merck Sharp & Dohme Corp., priority 2012, dated 2016).
# Like-named read-outs stand apart in the source and are kept apart here.
# Experiments:
# [1] = target: soluble human BACE1 catalytic domain (Homo sapiens (Human), UniProt P56817); test: BACE1 HTRF FRET Assay; type: biochemical; details: Ki calculated from IC50 using the Cheng-Prusoff equation; QSY7-APPswe-Eu substrate, pH 5.0
# Method: A homogeneous time-resolved FRET assay can be used to determine IC50 values for inhibitors of the soluble human BACE1 catalytic domain. […] This substrate contains an N-terminal QSY7 moiety that serves as a quencher of the C-terminal Europium fluorophore (620 nm Em). […] Inhibition of BACE cleavage of the QSY7-APP^swe-Eu substrate by inhibitors is manifested as a suppression of 620 nm fluorescence. […] The reactions are incubated at 30° C. for 1.5 hours. The 620 nm fluorescence is then read on a Rubystar HTRF plate reader (BMG Labtechnologies) using a 50 millisecond delay followed by a 400 millisecond acquisition time window. Inhibitor IC50 values are derived from non-linear regression analysis of concentration response curves.
# [2] = target: purified human autoBACE-2 (Homo sapiens (Human), UniProt Q9Y5Z0); test: BACE-2 Assay (BACE-HTRF assay); type: biochemical; details: Ki calculated from IC50 using the Cheng-Prusoff equation, pH 5.0, read-out: BACE2 Ki
# Method: Inhibitor IC50's at purified human autoBACE-2 are determined in a time-resolved endpoint proteolysis assay that measures hydrolysis of the QSY7-[…]-Eu-amide FRET peptide substrate (BACE-HTRF assay). […] Inhibitor compounds, prepared at 3× the desired final concentration in 1×BACE assay buffer (20 mM sodium acetate pH 5.0, 10% glycerol, 0.1% Brij-35) supplemented with 7.5% DMSO are pre-incubated with an equal volume of autoBACE-2 enzyme diluted in 1×BACE assay buffer (final enzyme concentration 1 nM) in black 384-well NUNC plates for 30 minutes at 30° C. […] DMSO is present at 5% final concentration in the assay. Following laser excitation of sample wells at 320 nm, the fluorescence signal at 620 nm is collected for 400 ms following a 50 μs delay on a RUBYstar HTRF plate reader (BMG Labtechnologies). Raw RFU data is normalized to maximum (1.0 nM BACE/DMSO) and minimum (no enzyme/DMSO) RFU values. […] The Ki values are calculated from the IC50 using the Cheng-Prusoff equation.
# [3] = QSY7-EISEVNLDAEFC-Eu-amide substrate
# purified human autoBACE-2, sequence (Q9Y5Z0 63-473 limits assumed): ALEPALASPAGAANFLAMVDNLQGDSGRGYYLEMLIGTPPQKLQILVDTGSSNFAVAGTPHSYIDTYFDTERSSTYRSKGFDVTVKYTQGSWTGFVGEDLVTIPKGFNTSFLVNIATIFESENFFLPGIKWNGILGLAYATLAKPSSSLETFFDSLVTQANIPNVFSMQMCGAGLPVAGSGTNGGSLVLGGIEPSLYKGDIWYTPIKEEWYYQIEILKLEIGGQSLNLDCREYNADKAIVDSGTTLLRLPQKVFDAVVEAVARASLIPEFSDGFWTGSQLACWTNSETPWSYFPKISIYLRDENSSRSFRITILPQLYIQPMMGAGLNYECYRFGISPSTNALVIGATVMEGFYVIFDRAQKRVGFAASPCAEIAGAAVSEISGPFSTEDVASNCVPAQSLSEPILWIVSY
# soluble human BACE1 catalytic domain, sequence (P56817 75-416): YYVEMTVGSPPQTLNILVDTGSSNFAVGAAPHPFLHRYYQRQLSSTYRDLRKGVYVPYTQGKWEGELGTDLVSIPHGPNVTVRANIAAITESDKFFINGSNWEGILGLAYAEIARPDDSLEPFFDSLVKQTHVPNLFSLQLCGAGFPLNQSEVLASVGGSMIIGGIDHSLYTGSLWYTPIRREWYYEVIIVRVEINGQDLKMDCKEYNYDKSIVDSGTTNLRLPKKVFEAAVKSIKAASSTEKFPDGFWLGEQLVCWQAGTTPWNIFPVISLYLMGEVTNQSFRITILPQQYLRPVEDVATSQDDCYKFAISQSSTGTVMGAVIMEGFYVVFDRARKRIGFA
Ki [1],"Ki [2, 3]",Ki ([2]; QSY7-[…]-Eu-amide substrate),SMILES
3 nM,–,–,COc1ccc(C(=O)Nc2ccc(F)c([C@@]3(C)NC(=N)N(C)S(=O)(=O)[C@@]34CCN(Cc3cscn3)C4)c2)nc1 [Example 8]
1 nM,2 nM,–,COc1ccc(C(=O)Nc2ccc(F)c([C@@]3(C)NC(=N)N(C)S(=O)(=O)[C@@]34CCN(CC3CCOC3)C4)c2)nc1 (stereo partly shown) [Example 9]
2 nM,–,–,COc1ccc(C(=O)Nc2ccc(F)c([C@@]3(C)NC(=N)N(C)S(=O)(=O)[C@@]34CCN(Cc3ccccn3)C4)c2)nc1 [Example 10]
2 nM,12 nM,–,COc1ccc(C(=O)Nc2ccc(F)c([C@@]3(C)NC(=N)N(C)S(=O)(=O)[C@@]34CCN(Cc3cccnc3)C4)c2)nc1 [Example 11]
2 nM,7 nM,–,COc1ccc(C(=O)Nc2ccc(F)c([C@@]3(C)NC(=N)N(C)S(=O)(=O)[C@@]34CCN(CC3CC3)C4)c2)nc1 [Example 12]
3 nM,9 nM,–,COc1ccc(C(=O)Nc2ccc(F)c([C@@]3(C)NC(=N)N(C)S(=O)(=O)[C@@]34CCN(Cc3cnco3)C4)c2)nc1 [Example 14]
4 nM,17 nM,–,COc1ccc(C(=O)Nc2ccc(F)c([C@@]3(C)NC(=N)N(C)S(=O)(=O)[C@@]34CCN(Cc3cncnc3)C4)c2)nc1 [Example 15]
4 nM,–,–,COc1ccc(C(=O)Nc2ccc(F)c([C@@]3(C)NC(=N)N(C)S(=O)(=O)[C@@]34CCN(Cc3cnn(C)c3)C4)c2)nc1 [Example 16]
4 nM,–,–,COc1ccc(C(=O)Nc2ccc(F)c([C@@]3(C)NC(=N)N(C)S(=O)(=O)[C@@]34CCN(CC3CC(OC)C3)C4)c2)nc1 (stereo partly shown) [Example 17]
8 nM,9 nM,–,CN1C(=N)N[C@](C)(c2cc(NC(=O)c3ccc(F)cn3)ccc2F)[C@]2(CCN(Cc3ccncc3)C2)S1(=O)=O [Example 29]
4 nM,5 nM,–,CN1C(=N)N[C@](C)(c2cc(NC(=O)c3ccc(F)cn3)ccc2F)[C@]2(CCN(Cc3cnco3)C2)S1(=O)=O [Example 30]
2 nM,5 nM,–,CN1C(=N)N[C@](C)(c2cc(NC(=O)c3ccc(F)cn3)ccc2F)[C@]2(CCN(CC3CC3)C2)S1(=O)=O [Example 31]
3 nM,5 nM,–,CN1C(=N)N[C@](C)(c2cc(NC(=O)c3ccc(F)cn3)ccc2F)[C@]2(CCN(Cc3cscn3)C2)S1(=O)=O [Example 33]
6 nM,10 nM,–,COC1CC(CN2CC[C@@]3(C2)[C@@](C)(c2cc(NC(=O)c4ccc(F)cn4)ccc2F)NC(=N)N(C)S3(=O)=O)C1 (stereo partly shown) [Example 34]
2 nM,6 nM,–,CN1C(=N)N[C@](C)(c2cc(NC(=O)c3ccc(F)cn3)ccc2F)[C@]2(CCN(Cc3cccnc3)C2)S1(=O)=O [Example 35]
2 nM,5 nM,–,CN1C(=N)N[C@](C)(c2cc(NC(=O)c3ccc(F)cn3)ccc2F)[C@]2(CCN(Cc3cocn3)C2)S1(=O)=O [Example 37]
4 nM,7 nM,–,CN1C(=N)N[C@](C)(c2cc(NC(=O)c3ccc(F)cn3)ccc2F)[C@]2(CCN(Cc3cncnc3)C2)S1(=O)=O [Example 38]
2 nM,3 nM,–,CCCCN1CC[C@@]2(C1)[C@@](C)(c1cc(NC(=O)c3ccc(F)cn3)ccc1F)NC(=N)N(C)S2(=O)=O [Example 39]
4 nM,10 nM,–,CN1C(=N)N[C@](C)(c2cc(NC(=O)c3ccc(F)cn3)ccc2F)[C@]2(CCN(Cc3cnn(C)c3)C2)S1(=O)=O [Example 40]
4 nM,10 nM,–,CN1C(=N)N[C@](C)(c2cc(NC(=O)c3ccc(F)cn3)ccc2F)[C@]2(CCN(S(=O)(=O)CC3CCCO3)C2)S1(=O)=O (stereo partly shown) [Example 82]
16 nM,6 nM,–,CN1C(=N)N[C@](C)(c2cc(NC(=O)c3ccc(F)cn3)ccc2F)[C@@]2(CCN(S(=O)(=O)c3ccccc3)C2)S1(=O)=O [Example 91]
22 nM,–,25 nM,COCC(=O)Nc1ccc(F)c([C@@]2(C)NC(=N)N(C)S(=O)(=O)[C@@]23CCN(Cc2ccccc2)C3)c1 [Example 96]
